Peptide text beside a SMILES is read from it. * marks the point of attachment. Fmoc = O=C(OCC1c2ccccc2-c2ccccc21)*; tBu = CC(C)(C)*
Assay: Physical stability of solid form on isolation/drying (crystallization screen)
Format: physicochemical
Conditions: wet solids from 1:1 v/v ACN/MTBE slurry, upon isolation/drying
Method: A crystallization screen was performed on Fmoc-G-P-S(tBu)-S(tBu)-G-OH (SEQ ID NO: 19) free form using various solvents and solvent mixtures. Different crystallization methods were employed including solvent-based techniques such as slurry, cooling, ambient and sub-ambient temperatures holding, solvent/anti-solvent addition, or combination of techniques, and non-solvent-based techniques such as heat stress.
Three solid forms were identified: Fmoc-G-P-S(tBu)-S(tBu)-G-OH (SEQ ID NO: 19) Form A, Fmoc-G-P-S(tBu)-S(tBu)-G-OH (SEQ ID NO: 19) Form C, and Fmoc-G-P-S(tBu)-S(tBu)-G-OH (SEQ ID NO: 19) Form D. Form A was a solvated form produced from 1-propanol (1-PrOH) or mixtures containing 1-PrOH (such as 1-PrOH/heptane). Form D is a solvated form produced from acetonitrile (ACN) or mixtures containing ACN (such as ACN/MTBE). Form C is a conversion product when Form D is isolated and dried.
The suspension was seeded with Fmoc-G-P-S(tBu)-S(tBu)-G-OH (SEQ ID NO: 19) Form C and then left at ambient conditions to continue stirring for 2 days.

With `CC(C)(C)OC[C@H](NC(=O)[C@H](COC(C)(C)C)NC(=O)[C@@H]1CCCN1C(=O)CNC(=O)OCC1c2ccccc2-c2ccccc21)C(=O)NCC(=O)O` [Fmoc-Gly-Pro-Ser(tBu)-Ser(tBu)-Gly-OH] (Fmoc-GPS(tBu)S(tBu)G-OH) the “physical stability of solid form” value was “physically not stable”.
